According to patent US8278345B2, “Inhibitors of glutaminyl cyclase” (Probiodrug AG, priority 2006, dated 2012):
Read-outs that look alike come from different tables or passages of the source.

Assays:
hQC = hQC (Homo sapiens, UniProt Q16769); assay: Inhibitor assay for glutaminyl cyclase activity (fluorometric, H-Gln-βNA / H-Gln-AMC); format: biochemical
Method in brief: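 Ki values came from fitting progress curves to a competitive inhibition model; rapid screens used 4 mM inhibitor with substrate at KM. QC activity was read at 30 °C via auxiliary pyroglutamyl aminopeptidase releasing βNA (0.2 mM H-Gln-βNA, 0.2 M Tris pH 8.0, 20 mM EDTA) or AMC (0.05 M Tris pH 8.0, 5 mM EDTA).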

[1] = compound from preparative synthesis, purified, read-out: IC50 hQC
[2] = compound from preparative synthesis, purified

Sequence of hQC (Q16769 29-361): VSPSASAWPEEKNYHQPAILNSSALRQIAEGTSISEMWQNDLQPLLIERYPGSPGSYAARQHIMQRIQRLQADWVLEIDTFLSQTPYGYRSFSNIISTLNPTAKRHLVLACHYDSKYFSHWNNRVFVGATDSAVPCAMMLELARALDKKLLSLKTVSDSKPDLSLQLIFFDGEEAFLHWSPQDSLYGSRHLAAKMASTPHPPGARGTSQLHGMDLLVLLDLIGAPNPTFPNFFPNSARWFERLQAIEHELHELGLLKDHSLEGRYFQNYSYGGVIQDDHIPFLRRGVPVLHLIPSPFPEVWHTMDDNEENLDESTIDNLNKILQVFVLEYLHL

SMILES	IC50 (hQC; read-out: IC50) [nM]	also measured
CC(=O)C1=C(O)C(=O)N(c2ccc3[nH]cnc3c2)C1c1ccc2cccc(O)c2n1 (stereo not drawn) [Compound 277, 4-Acetyl-1-(1H-benzoimidazol-5-yl)-3-hydroxy-5-(8-hydroxy-quinolin-2-yl)-1,5-dihydro-pyrrol-2-one]	4	melting point: 174 °C; IC50 (hQC; [1]): 5.8 nM
O=C(C1=C(O)C(=O)N(c2ccc3[nH]cnc3c2)C1c1ccc2nsnc2c1)C1CC1 (stereo not drawn) [Compound 287, 1-(1H-Benzoimidazol-5-yl)-5-benzo[c][1,2,5]thiadiazol-5-yl-4-cyclopropanecarbonyl-3-hydroxy-1,5-dihydro-pyrrol-2-one]	4	melting point: 270 °C (dec.); IC50 (hQC; [1]): 0.7 nM
CC(=O)C1=C(O)C(=O)N(c2ccc3[nH]cnc3c2)C1c1cccc(F)c1F (stereo not drawn) [Compound 350, 4-Acetyl-1-(1H-benzoimidazol-5-yl)-5-(2,3-difluoro-phenyl)-3-hydroxy-1,5-dihydro-pyrrol-2-one]	4	melting point: 135 °C; IC50 (hQC; [1]): 30.3 nM
CC(C)CC(=O)C1=C(O)C(=O)N(c2ccc3[nH]cnc3c2)C1CCC(=O)O (stereo not drawn) [Compound 447, 3-[1-(1H-Benzoimidazol-5-yl)-4-hydroxy-3-(3-methyl-butyryl)-5-oxo-2,5-dihydro-1H-pyrrol-2-yl]-propionic acid]	2560	–
CC1=C(O)C(=O)N(c2ccc3[nH]cnc3c2)C1c1cnc2ccccc2c1 (stereo not drawn) [Compound 448, 1-(1H-Benzoimidazol-5-yl)-3-hydroxy-4-methyl-5-quinolin-3-yl-1,5-dihydro-pyrrol-2-one]	1750	–
CCCC(=O)C1=C(O)C(=O)N(c2ccc3[nH]cnc3c2)C1C1CC1 (stereo not drawn) [Compound 449, 1-(1H-Benzoimidazol-5-yl)-4-butyryl-5-cyclopropyl-3-hydroxy-1,5-dihydro-pyrrol-2-one]	2200	–
CC(=O)C1=C(O)C(=O)N(c2ccc3[nH]cnc3c2)C1CCC(=O)O (stereo not drawn) [Compound 450, 3-[3-Acetyl-1-(1H-benzoimidazol-5-yl)-4-hydroxy-5-oxo-2,5-dihydro-1H-pyrrol-2-yl]-propionic acid]	9490	–
O=C(O)c1ccc(C2C(c3c[nH]c4ccccc34)=C(O)C(=O)N2c2ccc3[nH]cnc3c2)o1 (stereo not drawn) [Compound 451, 5-[1-(1H-Benzoimidazol-5-yl)-4-hydroxy-3-(1H-indol-3-yl)-5-oxo-2,5-dihydro-1H-pyrrol-2-yl]-furan-2-carboxylic acid]	2560	–
O=C(C1=C(O)C(=O)N(c2ccc3[nH]cnc3c2)C1c1ccc[nH]1)C1CCCCC1 (stereo not drawn) [Compound 452, 1-(1H-Benzoimidazol-5-yl)-3-cyclohexanecarbonyl-4-hydroxy-1,2-dihydro-1′H-[2,2′]bipyrrolyl-5-one]	5080	–
Cc1ccc2c(C3C(C(=O)C4CC4)=C(O)C(=O)N3c3ccc4[nH]cnc4c3)c[nH]c2c1 (stereo not drawn) [Compound 453, 1-(1H-Benzoimidazol-5-yl)-4-cyclopropanecarbonyl-3-hydroxy-5-(6-methyl-1H-indol-3-yl)-1,5-dihydro-pyrrol-2-one]	7420	–
O=C(C1=C(O)C(=O)N(c2ccc3[nH]cnc3c2)C1c1ccc(Cl)c(C(F)(F)F)c1)C1CCCCC1 (stereo not drawn) [Compound 454, 1-(1H-Benzoimidazol-5-yl)-5-(4-chloro-3-trifluoromethyl-phenyl)-4-cyclohexanecarbonyl-3-hydroxy-1,5-dihydro-pyrrol-2-one]	2560	–
CC(C)CC(=O)C1=C(O)C(=O)N(c2ccc3[nH]cnc3c2)C1c1ccc(-c2ccccn2)cc1 (stereo not drawn) [Compound 455, 1-(1H-Benzoimidazol-5-yl)-3-hydroxy-4-(3-methyl-butyryl)-5-(4-pyridin-2-yl-phenyl)-1,5-dihydro-pyrrol-2-one]	130	–
CCCCCC1=C(O)C(=O)N(c2ccc3[nH]cnc3c2)C1c1ccco1 (stereo not drawn) [Compound 456, 1-(1H-Benzoimidazol-5-yl)-5-furan-2-yl-3-hydroxy-4-pentyl-1,5-dihydro-pyrrol-2-one]	4630	–
O=C1C(O)=C(c2c[nH]c3ccccc23)C(c2ccc3nsnc3c2)N1c1ccc2[nH]cnc2c1 (stereo not drawn) [Compound 457]	4	–
Cc1cccc(C2C(C(=O)CC(C)C)=C(O)C(=O)N2c2ccc3[nH]cnc3c2)c1 (stereo not drawn) [Compound 458, 1-(1H-Benzoimidazol-5-yl)-3-hydroxy-4-(3-methyl-butyryl)-5-m-tolyl-1,5-dihydro-pyrrol-2-one]	580	–
Cc1ccc(C2C(C(=O)c3ccc(Cl)cc3)=C(O)C(=O)N2c2ccc3[nH]cnc3c2)o1 (stereo not drawn) [Compound 459, 1-(1H-Benzoimidazol-5-yl)-4-(4-chloro-benzoyl)-3-hydroxy-5-(5-methyl-furan-2-yl)-1,5-dihydro-pyrrol-2-one]	2110	–
CC1=C(O)C(=O)N(c2ccc3[nH]cnc3c2)C1c1ccc(Cl)c(C(F)(F)F)c1 (stereo not drawn) [Compound 460, 1-(1H-Benzoimidazol-5-yl)-5-(4-chloro-3-trifluoromethyl-phenyl)-3-hydroxy-4-methyl-1,5-dihydro-pyrrol-2-one]	9850	–
CC(C)CC(=O)C1=C(O)C(=O)N(c2ccc3[nH]cnc3c2)C1c1c[nH]cn1 (stereo not drawn) [Compound 461, 1-(1H-Benzoimidazol-5-yl)-3-hydroxy-5-(1H-imidazol-4-yl)-4-(3-methyl-butyryl)-1,5-dihydro-pyrrol-2-one]	4000	–
O=C1C(O)=C(F)C(c2ccccc2F)N1c1ccc2[nH]cnc2c1 (stereo not drawn) [Compound 462, 1-(1H-Benzoimidazol-5-yl)-4-fluoro-5-(2-fluoro-phenyl)-3-hydroxy-1,5-dihydro-pyrrol-2-one]	4990	–
CCCCCC(=O)C1=C(O)C(=O)N(c2ccc3[nH]cnc3c2)C1CC (stereo not drawn) [Compound 463, 1-(1H-Benzoimidazol-5-yl)-5-ethyl-4-hexanoyl-3-hydroxy-1,5-dihydro-pyrrol-2-one]	4000	–
O=C1C(O)=C(c2cccc(O)c2)C(c2cc[nH]n2)N1c1ccc2[nH]cnc2c1 (stereo not drawn) [Compound 464, 1-(1H-Benzoimidazol-5-yl)-3-hydroxy-4-(3-hydroxy-phenyl)-5-(1H-pyrazol-3-yl)-1,5-dihydro-pyrrol-2-one]	9850	–
CC(C)(C)C(=O)C1=C(O)C(=O)N(c2ccc3[nH]cnc3c2)C1 [Compound 465, 1-(1H-Benzoimidazol-5-yl)-4-(2,2-dimethyl-propionyl)-3-hydroxy-1,5-dihydro-pyrrol-2-one]	6160	–
O=C(C1=C(O)C(=O)N(c2ccc3[nH]cnc3c2)C1c1cccc(F)c1F)c1ccccc1 (stereo not drawn) [Compound 466, 1-(1H-benzo[d]imidazol-5-yl)-4-benzoyl-5-(2,3-difluorophenyl)-3-hydroxy-1H-pyrrol-2(5H)-one]	39.8	Ki (hQC; [2]): 3.31 nM
CC1=C(O)C(=O)N(c2ccc3nc[nH]c3c2)C1c1cccc(F)c1F (stereo not drawn) [Compound 467, 1-(1H-benzo[d]imidazol-6-yl)-5-(2,3-difluorophenyl)-3-hydroxy-4-methyl-1H-pyrrol-2(5H)-one]	52.6	Ki (hQC; [2]): 11.6 nM
CC1=C(O)C(=O)N(c2ccc3nc[nH]c3c2)C1c1c(F)ccc(F)c1Cl (stereo not drawn) [Compound 472, 1-(1H-benzo[d]imidazol-6-yl)-5-(2-chloro-3,6-difluorophenyl)-3-hydroxy-4-methyl-1H-pyrrol-2(5H)-one]	470	Ki (hQC; [2]): 55.8 nM
CC1=C(O)C(=O)N(c2ccc3nc[nH]c3c2)C1c1c(F)cccc1F (stereo not drawn) [Compound 473, 1-(1H-benzo[d]imidazol-6-yl)-5-(2,6-difluorophenyl)-3-hydroxy-4-methyl-1H-pyrrol-2(5H)-one]	259	Ki (hQC; [2]): 29.2 nM
